Read-outs that look alike come from different tables or passages of the source.
Assays:
[1] = system: non-malignant CHO-K1 cell line; assay: Sulforhodamine B (SRB) growth inhibition / cytotoxicity, CHO-K1; type: cell-based; conditions: Cricetulus griseus, mean ± SE, read-out: IC50 (mM) CHO-K1 cells
Method: Biological assays were performed using adenocarcinoma colon cancer (SW480) and non-malignant (CHO-K1) cell lines obtained from The European Collection of Authenticated Cell Cultures (ECACC, England). Cells were cultured in 25-cm^2 flasks containing Dulbecco’s Modified Eagle Medium, supplemented with 10% heat-inactivated (56 °C) horse serum, 1% penicillin/streptomycin and 1% non-essential amino acids (Gibco Invitrogen, Carlsbad, USA). For all experiments, horse serum was reduced to 3%, and the medium was supplemented with […] (ITS-defined medium; Gibco, Invitrogen, Carlsbad, USA) ([33]).
The growth inhibition of the ethanol extract, the Chromone and 5-fluorouracil (5-FU; the standard drug) was evaluated through sulforhodamine B (SRB) assay, a colorimetric test that is based on staining of total cellular protein of adherent cells. Cells were seeded to a ﬁnal density of 20.000 cells/well in 96-well tissue culture plates and incubated at 37 °C in a humidified atmosphere at 5% CO2. All cultures were allowed to grow for 24 h. Afterward, they were treated with 1% of DMSO (vehicle control) or increasing concentrations (10^-5–0,2 mM) of the compounds. After treatment, cells were fixed with trichloroacetic acid (50% v/v; MERCK) for one hour at 4 °C. Cell proteins were determined by staining with SRB (0.4% w/v; Sigma-Aldrich, United States), then they were washed with 1% acetic acid to remove unbound SRB and left for air-drying. Protein-bound SRB was solubilized in 10 mM Tris-base, and the absorbance was measured at 492 nm in a microplate reader (Mindray MR-96A) ([33], [34]). All experiments were performed in quintuplicate. These values were used to calculate the IC50, through dose-response curves for each compound and the selectivity index (SI), by the ratio of IC50 values in non-malignant CHO-K1 cells to IC50 of SW480 cells.
All experiments were performed at least three times. Data are reported as mean ± SE (standard error). Statistical differences between the control group (non-treated) and treated cells were evaluated by one-way ANOVA followed by the Dunnett’s test. Values with p ≤ 0.05 were considered significant. Data were analyzed with GraphPad Prism version 7.04 for Windows (Graph Pad Software, San Diego, California, USA).

[2] = system: SW480 human colon adenocarcinoma cells; assay: Sulforhodamine B (SRB) growth inhibition / cytotoxicity, SW480; type: cell-based; conditions: for SI (selectivity index): ratio IC50 CHO-K1 / IC50 SW480; for IC50: Homo sapiens, SRB, mean ± SE; for IC50 / cytotoxic activity (in words): SW480; for cytotoxic activity (in words): 24 h and 48 h after treatment;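 for all read-outs here: cells exposed to graded doses from 10^-5 to 0.2 mM, with 1% DMSO as vehicle control, and cellular protein quantified by SRB staining after trichloroacetic acid fixation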
Method: Cells were cultured in 25-cm^2 flasks containing Dulbecco’s Modified Eagle Medium, supplemented with 10% heat-inactivated (56 °C) horse serum, 1% penicillin/streptomycin and 1% non-essential amino acids (Gibco Invitrogen, Carlsbad, USA). For all experiments, horse serum was reduced to 3%, and the medium was supplemented with 5 mg/mL transferrin, 5 mg/mL selenium and 10 mg/mL insulin (ITS-defined medium; Gibco, Invitrogen, Carlsbad, USA) ([33]).

non-cancer CCD841 cells = system: non-cancer CCD841 cells; set-up: method as in PMID 30429977; conditions: compared with CRC cell lines; cited from earlier work

In the case of `C=CCSC[C@H](NC(=O)c1ccccc1O)C(=O)OCC` [9b, Ethyl S-allyl-N-(2-hydroxybenzoyl)-L-cysteinate], the IC50 ([1]; 24 h) is reported as greater than 0.2 mM, the IC50 ([1]; 48 h) is reported as greater than 0.2 mM and the “SI (selectivity index)” value ([2]; 24 h) is reported as greater than 1.25. For the same compound, the IC50 ([2]; 24 h) was 0.16 ± 0.013 mM and the IC50 ([2]; 48 h) was greater than 0.2 mM.
With `O=c1[nH]cc(F)c(=O)[nH]1` [5-Fluorouracil, reference compound] the IC50 ([1]; 24 h) was 0.125 ± 0.022 mM, the IC50 ([1]; 48 h) was 0.046 ± 0.015 mM and the “SI (selectivity index)” value ([2]; 48 h) was 1.22. The “SI (selectivity index)” value ([2]; 48 h, listed as 5-fluorouracil) was “higher than 1”, the IC50 ([2]; 24 h) was 0.096 ± 0.024 mM and the IC50 ([2]; 48 h) was 0.037 ± 0.013 mM.
In the case of `C=CCSC[C@H](NC(=O)c1ccccc1O)C(=O)OCCC` [9c, Propyl S-allyl-N-(2-hydroxybenzoyl)-L-cysteinate], the IC50 ([1]; 24 h) is reported as greater than 0.2 mM, the IC50 ([1]; 48 h) is reported as greater than 0.2 mM and the IC50 ([2]; 24 h) is reported as greater than 0.2 mM. For the same compound, the IC50 ([2]; 48 h) was greater than 0.2 mM and the “cytotoxic activity (in words)” value [2] was “displayed activity neither 24 h nor 48 h”.
In the case of `C=CCSC[C@H](NC(=O)Cc1ccccc1Nc1c(Cl)cccc1Cl)C(=O)OCCC` [10c, Propyl S-allyl-N-(2-(2-((2,6-dichlorophenyl)amino)phenyl)acetyl)-L-cysteinate], the IC50 ([1]; 24 h) is reported as 0.223 ± 0.005 mM, the IC50 ([1]; 48 h) is reported as 0.167 ± 0.1 mM and the “SI (selectivity index)” value ([2]; 24 h) is reported as 1.09. For the same compound, the “SI (selectivity index)” value ([2]; 48 h) was 1.06, the IC50 ([2]; 24 h) was 0.204 ± 0.005 mM and the IC50 ([2]; 48 h) was 0.158 ± 0.002 mM.
Compound `C=CCSC[C@H](NC(=O)c1ccccc1O)C(=O)OC` [9a, Methyl S-allyl-N-(2-hydroxybenzoyl)-L-cysteinate] has a melting point of 112 to 114 °C, an IC50 ([1]; 24 h) of 0.146 ± 0.016 mM and an IC50 ([1]; 48 h) of 0.157 ± 0.005 mM. The “SI (selectivity index)” value ([2]; 24 h) was less than 0.73, the “SI (selectivity index)” value ([2]; 48 h) was less than 0.80 and the IC50 ([2]; 24 h) was greater than 0.2 mM. For the same compound, the IC50 ([2]; 48 h) was greater than 0.2 mM and the “cytotoxic activity (in words)” value [2] was “displayed activity neither 24 h nor 48 h”.
With `O=C(O)Cc1ccccc1Nc1c(Cl)cccc1Cl` [Diclofenac, reference compound] the IC50 ([1]; 24 h) was greater than 0.2 mM, the IC50 ([1]; 48 h) was 0.202 ± 0.001 mM and the “SI (selectivity index)” value ([2]; 48 h) was 0.98. The IC50 ([2]; 24 h) was 0.267 ± 0.01 mM and the IC50 ([2]; 48 h) was 0.206 ± 0.011 mM.
For `CC(=O)Oc1ccccc1C(=O)O` [Aspirin, reference compound], the IC50 ([1]; 24 h) was greater than 0.2 mM, the IC50 ([1]; 48 h) was greater than 0.2 mM and the IC50 ([2]; 24 h) was greater than 0.2 mM. For the same compound, the IC50 ([2]; 48 h) was greater than 0.2 mM.
Work on `C=CCSC[C@H](NC(=O)Cc1ccccc1Nc1c(Cl)cccc1Cl)C(=O)OC` [10a, Methyl S-allyl-N-(2-(2-((2,6-dichlorophenyl)amino)phenyl)acetyl)-L-cysteinate] yielded an IC50 ([1]; 24 h) of 0.18 ± 0.012 mM, an IC50 ([1]; 48 h) of 0.112 ± 0.008 mM and an IC50 ([2]; 24 h) of 0.192 ± 0.004 mM. For the same compound, the IC50 ([2]; 48 h) was 0.12 ± 0.004 mM.
`C=CCSC[C@H](NC(=O)C(C)c1ccc(CC(C)C)cc1)C(=O)OCCC` (mixture of isomers) [12c, Propyl S-allyl-N-(2-(4-isobutylphenyl)propanoyl)-L-cysteinate] showed a melting point of 58 to 60 °C, an IC50 ([1]; 24 h) greater than 0.2 mM and an IC50 ([1]; 48 h) greater than 0.2 mM. The “SI (selectivity index)” value ([2]; 24 h) was greater than 1.1, the IC50 ([2]; 24 h) was 0.225 ± 0.01 mM and the IC50 ([2]; 48 h) was 0.209 ± 0.005 mM. The “cytotoxic activity (in words)” value [2] was “displayed activity neither 24 h nor 48 h”.
`C=CCSC[C@H](NC(=O)C(C)c1ccc(CC(C)C)cc1)C(=O)OCC` (mixture of isomers) [12b, Ethyl S-allyl-N-(2-(4-isobutylphenyl)propanoyl)-L-cysteinate] gave a melting point of 65 to 67 °C, an IC50 ([1]; 24 h) greater than 0.2 mM and an IC50 ([1]; 48 h) of 0.241 ± 0.018 mM. For the same compound, the “SI (selectivity index)” value ([2]; 48 h) was 1.31, the IC50 ([2]; 24 h) was greater than 0.2 mM and the IC50 ([2]; 48 h) was 0.183 ± 0.005 mM.
With `CC(C)Cc1ccc(C(C)C(=O)O)cc1` (stereo not drawn) [Ibuprofen, reference compound] the IC50 ([1]; 24 h) was greater than 0.2 mM, the IC50 ([1]; 48 h) was greater than 0.2 mM and the IC50 ([2]; 24 h) was greater than 0.2 mM. The IC50 ([2]; 48 h) was greater than 0.2 mM.
Work on `C=CCSC[C@H](NC(=O)C(C)c1ccc2cc(OC)ccc2c1)C(=O)OCCC` (mixture of isomers) [11c, Propyl S-allyl-N-(2-(6-methoxynaphthalen-2-yl)propanoyl)-L-cysteinate] yielded an IC50 ([1]; 24 h) greater than 0.2 mM, an IC50 ([1]; 48 h) greater than 0.2 mM and an IC50 ([2]; 24 h) greater than 0.2 mM. For the same compound, the IC50 ([2]; 48 h) was 0.237 ± 0.012 mM and the “cytotoxic activity (in words)” value [2] was “displayed activity neither 24 h nor 48 h”.
With `C=CCSC[C@H](NC(=O)C(C)c1ccc2cc(OC)ccc2c1)C(=O)OCC` (mixture of isomers) [11b, Ethyl S-allyl-N-(2-(6-methoxynaphthalen-2-yl)propanoyl)-L-cysteinate] the IC50 ([1]; 24 h) was greater than 0.2 mM, the IC50 ([1]; 48 h) was greater than 0.2 mM and the “SI (selectivity index)” value ([2]; 48 h) was greater than 1.28. It also gave an IC50 ([2]; 24 h) greater than 0.2 mM and an IC50 ([2]; 48 h) of 0.156 ± 0.008 mM.
`C=CCSC[C@H](NC(=O)C(C)c1ccc(CC(C)C)cc1)C(=O)OC` (mixture of isomers) [12a, Methyl S-allyl-N-(2-(4-isobutylphenyl)propanoyl)-L-cysteinate] showed a melting point of 89 to 91 °C, an IC50 ([1]; 24 h) greater than 0.2 mM and an IC50 ([1]; 48 h) of 0.201 ± 0.001 mM. The “SI (selectivity index)” value ([2]; 48 h) was 0.82, the IC50 ([2]; 24 h) was greater than 0.2 mM and the IC50 ([2]; 48 h) was 0.244 ± 0.011 mM. The “cytotoxic activity (in words)” value [2] was “displayed activity neither 24 h nor 48 h”.
For `C=CCSC[C@H](NC(=O)C(C)c1ccc2cc(OC)ccc2c1)C(=O)OC` (mixture of isomers) [11a, Methyl S-allyl-N-(2-(6-methoxynaphthalen-2-yl)propanoyl)-L-cysteinate], the IC50 ([1]; 24 h) was greater than 0.2 mM, the IC50 ([1]; 48 h) was greater than 0.2 mM and the IC50 ([2]; 24 h) was greater than 0.2 mM. The IC50 ([2]; 48 h) was greater than 0.2 mM and the “cytotoxic activity (in words)” value [2] was “displayed activity neither 24 h nor 48 h”.
For `COc1ccc2cc([C@H](C)C(=O)O)ccc2c1` [Naproxen, reference compound], the IC50 ([1]; 24 h) was greater than 0.2 mM and the IC50 ([1]; 48 h) was greater than 0.2 mM.
In the case of `COc1ccc(/C=C/C(=O)c2ccc(Cl)cc2)c(OC(=O)c2ccccc2OC(C)=O)c1` [compound 4], the “fold less inhibitory activity against non-cancer CCD841 cells” value (non-cancer CCD841 cells) is listed as 8 fold.
For `C=CCSC[C@H](NC(=O)Cc1ccccc1Nc1c(Cl)cccc1Cl)C(=O)OCC` [10b, Ethyl S-allyl-N-(2-(2-((2,6-dichlorophenyl)amino)phenyl)acetyl)-L-cysteinate], the IC50 ([1]; 24 h) was greater than 0.2 mM, the IC50 ([1]; 48 h) was greater than 0.2 mM and the “SI (selectivity index)” value ([2]; 48 h) was greater than 1.53. The IC50 ([2]; 24 h) was 0.24 ± 0.013 mM and the IC50 ([2]; 48 h) was 0.131 ± 0.012 mM.

From PMC8653649, “Promising Hybrids Derived from S-Allylcysteine and NSAIDs Fragments against Colorectal Cancer: Synthesis, In-vitro Evaluation, Drug-Likeness and In-silico ADME/tox Studies” (Iranian Journal of Pharmaceutical Research : IJPR, 2021)
